Patent publication US12390472B2 (SUZHOU SINOVENT PHARMACEUTICALS CO., LTD., priority 2018, dated 2025)

What was measured:
[1] = tested on: Pfeiffer; experiment: Methylated lysine of histone-H3 (H3K27Me3) detection by ELISA, Pfeiffer cells; assay type: cell-based, human; settings: Homo sapiens, 168 h, 7 days treatment, H3K27Me3 normalized to total histone-3, read-out: IC50 of cell methylation, Pfeiffer
Method: (§1) The operations for adherent cells and suspension cells cultured in 96-well plates were slightly different after they had been treated with compound (4-fold dilution 20 uM-0.009 nM, 3 duplicate wells) for 7 days, and the operations are summarized as follows: For adherent cells, after discarding the medium, 75 uL of 1-fold hypotonic lysis buffer (10 mM Tris-HCl, pH 7.5, containing halt protease inhibitor and PMSF with a final concentration of 1 mM) was added; the plate was frozen at −80° C. for at least 1 h or overnight; once the plate was taken away from the −80° C. environment, 120 uL (to a final volume of about 195 uL) of 1-fold hypotonic lysis buffer (containing protease inhibitor) was added, and the plate was thawed at room temperature and shaken for 2 min for mixing; and 8 uL (to a final volume of about 203 uL) of 2.5 M NaCl was added to each well to a final NaCl concentration of 100 mM and then the plate was shaken for an additional 2 min for mixing.
(§2) For suspension cells (final volume of medium was 100 uL/well), 25 uL of 5-fold hypotonic lysis buffer (50 mM Tris-HCl, pH 7.5, containing halt protease inhibitor and PMSF with a final concentration of 1 mM) was added, and the plate was frozen at −80° C. for at least 1 h or overnight. Once the plate was taken away from the −80° C. environment, 20 uL of 0.625 M NaCl was added to each well to a final NaCl concentration of about 100 mM, and the mixture was mixed well.
(§3) 75 uL or 100 uL of sample (with duplicate wells provided) was added to two 96-well ELISA plates (ThermoFisher Scientific; Immulon 4HBX 3885) and the plates were coated with total protein lysate and incubated overnight at 4° C. 50 uL of lysate was retained for protein quantitation if necessary. The sealing of the plates must be ensured. The plates were washed twice with 300 uL of 1×PBST (PBS containing 0.05% Tween 20) per well. Each well was blocked with 300 uL of dilution (PBS+2% BSA+0.05% Tween 20), incubated for 2 h at room temperature, and washed twice with 1×PBST. Primary antibodies were diluted with a dilution solution containing 1% BSA+0.05% Tween 20. 75-100 uL of anti-H3K27Me3 antibody (CST; 9733; 50% glycerol stock, 1:1,000) or anti-total histone-3 antibody (Abcam; ab1791; 50% glycerol stock, 1:10,000) was added to each well. The plates were incubated for 90 min at room temperature or incubated overnight at 4° C. The plates were washed three times with 1×PBST. 75-100 uL of anti-Rb-IgG-HRP secondary antibody (Cell Signaling Technology; 7074) was added per well, 1:2000 diluted secondary antibody for anti-H3K 27Me3 plate and 1:6000 diluted secondary antibody for anti-histone total histone-3 plate. The plates were incubated at room temperature for 90 min. The plate assayed with anti-histone-3 antibody was used to normalize the data for the corresponding plate assayed with anti-H3K 27me3. The plates must be washed at least three times with 1×PBST after primary or secondary antibody incubation. The plates were assayed by adding 75-100 uL of 3,3′,5,5′-tetramethylbenzidine substrate (CST or ThermoFisher Scientific; TMBS) per well and incubated away from light for 30 min at 37° C. The reaction was terminated by adding 100 uL of 0.5 M H2SO4 per well. The absorbance was read at 450 nm. Curve fitting was performed using Graph Pad program.

[2] = target: EZH2 enzyme complex (Homo sapiens (Human), UniProt Q15910); experiment: Test on EZH2 inhibitory activity (TR-FRET); assay type: biochemical; settings: EZH2 enzyme complex 25 ng/uL, histone H3 peptide 4 uM, SAM 2 uM, 300 min; read-out: IC50 of EZH2 inhibition
[3] = tested on: WSU-DLCL2; experiment: Methylated lysine of histone-H3 (H3K27Me3) detection by ELISA, WSU-DLCL2 cells; assay type: cell-based; settings: Homo sapiens, WSUDLCL2, 168 h; WSU-DLCL2, 7 days treatment, H3K27Me3 normalized to total histone-3; read-out: IC50 of cell methylation, WSU-DLCL2
Method: as §1, §2, §3

Sequence of EZH2 enzyme complex (Q15910 whole entry): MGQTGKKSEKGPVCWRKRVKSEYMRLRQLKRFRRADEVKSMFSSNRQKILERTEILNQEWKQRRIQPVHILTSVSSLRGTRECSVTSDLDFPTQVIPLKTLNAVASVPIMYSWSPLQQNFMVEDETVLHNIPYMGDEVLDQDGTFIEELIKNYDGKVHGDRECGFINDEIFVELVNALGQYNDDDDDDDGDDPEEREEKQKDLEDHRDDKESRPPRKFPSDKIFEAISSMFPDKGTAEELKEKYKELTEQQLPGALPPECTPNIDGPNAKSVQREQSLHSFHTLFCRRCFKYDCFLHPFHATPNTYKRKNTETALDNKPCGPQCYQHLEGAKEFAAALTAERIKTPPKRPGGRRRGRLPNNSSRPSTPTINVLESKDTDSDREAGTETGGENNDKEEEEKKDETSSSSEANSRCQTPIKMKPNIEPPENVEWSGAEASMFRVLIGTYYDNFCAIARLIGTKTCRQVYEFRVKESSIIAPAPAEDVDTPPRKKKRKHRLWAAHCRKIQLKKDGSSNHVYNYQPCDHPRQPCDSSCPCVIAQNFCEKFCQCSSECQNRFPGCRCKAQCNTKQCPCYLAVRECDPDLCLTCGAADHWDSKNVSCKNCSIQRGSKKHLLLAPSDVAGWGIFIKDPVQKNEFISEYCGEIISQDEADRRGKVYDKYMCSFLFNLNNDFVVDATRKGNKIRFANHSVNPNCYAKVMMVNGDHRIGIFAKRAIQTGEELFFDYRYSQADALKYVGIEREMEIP
Sequence of EZH2 enzyme complex (O75530 whole entry partner): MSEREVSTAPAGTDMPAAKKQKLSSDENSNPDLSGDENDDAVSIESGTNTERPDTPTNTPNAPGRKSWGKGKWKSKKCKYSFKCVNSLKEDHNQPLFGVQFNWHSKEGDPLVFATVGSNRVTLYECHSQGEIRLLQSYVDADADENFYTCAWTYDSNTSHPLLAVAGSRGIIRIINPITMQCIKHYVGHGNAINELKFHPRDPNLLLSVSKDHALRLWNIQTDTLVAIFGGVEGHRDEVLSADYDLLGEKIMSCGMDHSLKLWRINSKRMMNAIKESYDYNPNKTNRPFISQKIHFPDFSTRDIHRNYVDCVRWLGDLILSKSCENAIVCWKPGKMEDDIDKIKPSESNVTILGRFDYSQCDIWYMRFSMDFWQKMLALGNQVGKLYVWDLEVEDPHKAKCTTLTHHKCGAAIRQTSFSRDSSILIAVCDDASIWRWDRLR
Sequence of EZH2 enzyme complex (Q15022 whole entry partner): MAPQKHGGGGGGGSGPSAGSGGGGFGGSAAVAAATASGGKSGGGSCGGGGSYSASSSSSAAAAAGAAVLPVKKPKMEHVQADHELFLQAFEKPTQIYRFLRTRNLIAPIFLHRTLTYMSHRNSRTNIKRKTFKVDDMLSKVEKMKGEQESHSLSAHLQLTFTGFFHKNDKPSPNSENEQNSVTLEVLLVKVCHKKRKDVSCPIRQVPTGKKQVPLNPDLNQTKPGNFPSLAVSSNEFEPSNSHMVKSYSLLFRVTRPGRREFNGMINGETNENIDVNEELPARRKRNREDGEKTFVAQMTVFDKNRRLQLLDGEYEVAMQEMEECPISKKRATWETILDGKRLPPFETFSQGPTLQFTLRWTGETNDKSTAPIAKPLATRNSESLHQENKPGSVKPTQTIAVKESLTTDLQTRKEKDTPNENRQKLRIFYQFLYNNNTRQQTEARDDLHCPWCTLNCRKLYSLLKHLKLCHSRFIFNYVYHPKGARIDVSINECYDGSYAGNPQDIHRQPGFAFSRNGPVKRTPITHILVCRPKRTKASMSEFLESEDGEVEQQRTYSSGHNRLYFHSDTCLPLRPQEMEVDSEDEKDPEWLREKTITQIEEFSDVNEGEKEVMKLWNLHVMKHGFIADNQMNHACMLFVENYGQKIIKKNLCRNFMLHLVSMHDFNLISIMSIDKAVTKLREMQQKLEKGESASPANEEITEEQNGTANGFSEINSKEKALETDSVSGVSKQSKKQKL

| Compound | IC50 [1] | IC50 [2] | IC50 [3] |
| --- | --- | --- | --- |
| CCN(c1cc(OC2CC(C(=O)N3CCOCC3)C2)cc(C(=O)NCc2c(C)cc(C)[nH]c2=O)c1C)C1CCOCC1 (stereo not drawn) [Example 13, N-((4,6-dimethyl-2-oxo-1,2-dihydropyridin-3-yl)methyl)-3-(ethyl(tetrahydro-2H-pyran-4-yl)amino)-2-methyl-5-(3-(morpholine-4-carbonyl)cyclobutoxy)benzamide] | < 50 nM | 10 to 100 nM | 50 to 500 nM |
| CCN(c1cc(C2CCC2)cc(C(=O)NCc2c(C)cc(C)[nH]c2=O)c1C)C1CCOCC1 [Example 15, 5-cyclobutyl-N-((4,6-dimethyl-2-oxo-1,2-dihydropyridin-3-yl)methyl)-3-(ethyl(tetrahydro-2H-pyran-4-yl)amino)-2-methylbenzamide] | < 50 nM | 10 to 100 nM | 50 to 500 nM |
| CCN(c1cc(OC2CC(CN3CCOCC3)C2)cc(C(=O)NCc2c(C)cc(C)[nH]c2=O)c1C)C1CCOCC1 (stereo not drawn) [Example 16, N-((4,6-dimethyl-2-oxo-1,2-dihydropyridin-3-yl)methyl)-3-(ethyl(tetrahydro-2H-pyran-4-yl)amino)-2-methyl-5-(3-(morpholinylmethyl)cyclobutoxy)benzamide] | < 50 nM | 10 to 100 nM | 50 to 500 nM |
| CCN(c1cc(O[C@H]2C[C@@H](N3CCNCC3)C2)cc(C(=O)NCc2c(C)cc(C)[nH]c2=O)c1C)C1CCOCC1 [Example 17, N-((4,6-dimethyl-2-oxo-1,2-dihydropyridin-3-yl)methyl)-3-(ethyl(tetrahydro-2H-pyran-4-yl)amino)-2-methyl-5-(cis-3-(piperazin-1-yl)cyclobutoxy)benzamide] | < 50 nM | < 10 nM | 50 to 500 nM |
| CCN(c1cc(O[C@H]2C[C@H](N3CCNCC3)C2)cc(C(=O)NCc2c(C)cc(C)[nH]c2=O)c1C)C1CCOCC1 [Example 18, N-((4,6-dimethyl-2-oxo-1,2-dihydropyridin-3-yl)methyl)-3-(ethyl(tetrahydro-2H-pyran-4-yl)amino)-2-methyl-5-(trans-3-(piperazin-1-yl)cyclobutoxy)benzamide] | < 50 nM | 10 to 100 nM | 50 to 500 nM |
| CCN(c1cc(O[C@H]2C[C@@H](N3CCN(C)CC3)C2)cc(C(=O)NCc2c(C)cc(C)[nH]c2=O)c1C)C1CCOCC1 [Example 19, N-((4,6-dimethyl-2-oxo-1,2-dihydropyridin-3-yl)methyl)-3-(ethyl(tetrahydro-2H-pyran-4-yl)amino)-2-methyl-5-(cis-3-(4-methylpiperazin-1-yl)cyclobutoxy)benzamide] | < 50 nM | 10 to 100 nM | 50 to 500 nM |
| CCN(c1cc(O[C@H]2C[C@H](N3CCN(C)CC3)C2)cc(C(=O)NCc2c(C)cc(C)[nH]c2=O)c1C)C1CCOCC1 [Example 20, N-((4,6-dimethyl-2-oxo-1,2-dihydropyridin-3-yl)methyl)-3-(ethyl(tetrahydro-2H-pyran-4-yl)amino)-2-methyl-5-(trans-3-(4-methylpiperazin-1-yl)cyclobutoxy)benzamide] | < 50 nM | 10 to 100 nM | 50 to 500 nM |
| CCN(c1cc(O[C@H]2C[C@@H](N3CCN(C(C)C)CC3)C2)cc(C(=O)NCc2c(C)cc(C)[nH]c2=O)c1C)C1CCOCC1 [Example 21, N-((4,6-dimethyl-2-oxo-1,2-dihydropyridin-3-yl)methyl)-3-(ethyl(tetrahydro-2H-pyran-4-yl)amino)-5-(cis-3-(4-isopropylpiperazin-1-yl)cyclobutoxy)-2-methylbenzamide] | < 50 nM | 10 to 100 nM | 50 to 500 nM |
| CCN(c1cc(O[C@H]2C[C@H](N3CCN(C(C)C)CC3)C2)cc(C(=O)NCc2c(C)cc(C)[nH]c2=O)c1C)C1CCOCC1 [Example 22, N-((4,6-dimethyl-2-oxo-1,2-dihydropyridin-3-yl)methyl)-3-(ethyl(tetrahydro-2H-pyran-4-yl)amino)-5-(trans-3-(4-isopropylpiperazin-1-yl)cyclobutoxy)-2-methylbenzamide] | < 50 nM | 10 to 100 nM | 50 to 500 nM |
| CCN1CCN([C@H]2C[C@@H](Oc3cc(C(=O)NCc4c(C)cc(C)[nH]c4=O)c(C)c(N(CC)C4CCOCC4)c3)C2)CC1 [Example 23, N-((4,6-dimethyl-2-oxo-1,2-dihydropyridin-3-yl)methyl)-3-(ethyl(tetrahydro-2H-pyran-4-yl)amino)-5-(cis-3-(4-ethylpiperazin-1-yl)cyclobutoxy)-2-methylbenzamide] | < 50 nM | 10 to 100 nM | > 1000 nM |
| CCN1CCN([C@H]2C[C@H](Oc3cc(C(=O)NCc4c(C)cc(C)[nH]c4=O)c(C)c(N(CC)C4CCOCC4)c3)C2)CC1 [Example 24, N-((4,6-dimethyl-2-oxo-1,2-dihydropyridin-3-yl)methyl)-3-(ethyl(tetrahydro-2H-pyran-4-yl)amino)-5-(trans-3-(4-ethylpiperazin-1-yl)cyclobutoxy)-2-methylbenzamide] | < 50 nM | < 10 nM | 50 to 500 nM |
| CCN(c1cc(O[C@H]2C[C@@H](N3CCN(C(C)=O)CC3)C2)cc(C(=O)NCc2c(C)cc(C)[nH]c2=O)c1C)C1CCOCC1 [Example 25, cis-5-(3-(4-acetylpiperazin-1-yl)cyclobutoxy)-N-((4,6-dimethyl-2-oxo-1,2-dihydropyridin-3-yl)methyl)-3-(ethyl(tetrahydro-2H-pyran-4-yl)amino)-2-methylbenzamide] | < 50 nM | 10 to 100 nM | < 50 nM |
| CCN(c1cc(O[C@H]2C[C@H](N3CCN(C(C)=O)CC3)C2)cc(C(=O)NCc2c(C)cc(C)[nH]c2=O)c1C)C1CCOCC1 [Example 26, trans-5-(3-(4-acetylpiperazin-1-yl)cyclobutoxy)-N-((4,6-dimethyl-2-oxo-1,2-dihydropyridin-3-yl)methyl)-3-(ethyl(tetrahydro-2H-pyran-4-yl)amino)-2-methylbenzamide] | < 50 nM | 10 to 100 nM | 50 to 500 nM |
| CCN(c1cc(O[C@H]2C[C@@H](N3CCN(S(C)(=O)=O)CC3)C2)cc(C(=O)NCc2c(C)cc(C)[nH]c2=O)c1C)C1CCOCC1 [Example 27, N-((4,6-dimethyl-2-oxo-1,2-dihydropyridin-3-yl)methyl)-3-(ethyl(tetrahydro-2H-pyran-4-yl)amino)-2-methyl-5-(cis-3-(4-(methylsulfonyl)piperazin-1-yl)cyclobutoxy)benzamide] | < 50 nM | < 10 nM | < 50 nM |
| CCN(c1cc(O[C@H]2C[C@H](N3CCN(S(C)(=O)=O)CC3)C2)cc(C(=O)NCc2c(C)cc(C)[nH]c2=O)c1C)C1CCOCC1 [Example 28, N-((4,6-dimethyl-2-oxo-1,2-dihydropyridin-3-yl)methyl)-3-(ethyl(tetrahydro-2H-pyran-4-yl)amino)-2-methyl-5-(trans-3-(4-(methylsulfonyl)piperazin-1-yl)cyclobutoxy)benzamide] | < 50 nM | 10 to 100 nM | < 50 nM |
| CCN(c1cc(O[C@H]2C[C@H](CN3CCOCC3)C2)cc(C(=O)NCc2c(C)cc(C)[nH]c2=O)c1Cl)C1CCOCC1 [Example 29, 2-chloro-N-((4,6-dimethyl-2-oxo-1,2-dihydropyridin-3-yl)methyl)-3-(ethyl(tetrahydro-2H-pyran-4-yl)amino)-5-(trans-3-(morpholinylmethyl)cyclobutoxy)benzamide] | < 50 nM | 10 to 100 nM | 50 to 500 nM |
